Measurements reported in patent US20260232767A1, “INTERLEUKIN-23 RECEPTOR ANTAGONIST PEPTIDES FOR USE IN THE TREATMENT OF PSORIASIS” (Janssen Pharmaceutica NV, priority 2023, published 2026).

Test system: subjects with moderate-to-severe plaque psoriasis
Test: Safety, adverse events, Example 2 through Week 56
Assay type: in vivo, human
Conditions: 100 mg QD
Text: The LTE safety analysis was based on randomized participants in Example who entered the present long-term extension study and received at least one dose of study intervention (including a partial dose) during the study period.

## CC(=O)NCCCC[C@@H]1NC(=O)[C@H](Cc2c[nH]c3c(C)cccc23)NC(=O)[C@H]([C@@H](C)O)NC(=O)[C@H](CC(N)=O)NC(=O)[C@@H](NC(C)=O)C(C)(C)SSC(C)(C)[C@@H](C(=O)N[C@@H](Cc2ccc(OCCN)cc2)C(=O)N[C@@H](Cc2ccc3ccccc3c2)C(=O)NC2(C(=O)N[C@@H](CCC(=O)O)C(=O)N[C@@H](CC(N)=O)C(=O)N[C@@H](Cc3cccnc3)C(=O)N(C)CC(N)=O)CCOCC2)NC1=O [IL-23 receptor antagonist peptide, Ac-[Pen]*-N-T-[W(7-Me)]-[Lys(Ac)]-[Pen]*-Phe[4-(2-aminoethoxy)]-[2-Nal]-[THP]-E-N-[3-Pal]-Sarc-NH2 (*[Pen]-[Pen]* formdisulfidebond)]
Week 16-56
  Subjects with treatment-emergent AE: Bronchitis: 0
  Subjects with treatment-emergent AE: Meniscus injury: 0
  Subjects with treatment-emergent AE: Sinusitis: 0
  Subjects with treatment-emergent AE: Urinary tract infection: 0
  Subjects with treatment-emergent serious AE: Cardiac disorders: 0
  Subjects with treatment-emergent serious AE: Cerebrovascular accident: 0
  Subjects with treatment-emergent serious AE: Coronary artery disease: 0
  Subjects with treatment-emergent serious AE: Foot deformity: 0
  Subjects with treatment-emergent serious AE: General disorders and administration site conditions: 0
  Subjects with treatment-emergent serious AE: Injury, poisoning and procedural complications: 0
  Subjects with treatment-emergent serious AE: Ligament injury: 0
  Subjects with treatment-emergent serious AE: Neoplasms benign, malignant and unspecified (incl cysts and polyps): 0
  Subjects with treatment-emergent serious AE: Nervous system disorders: 0
  Subjects with treatment-emergent serious AE: Non-cardiac chest pain: 0
  Subjects with treatment-emergent serious AE: Respiratory, thoracic and mediastinal disorders: 0
  Subjects with treatment-emergent serious AE: Tonsillar hypertrophy: 0
  Subjects with treatment-emergent serious AE: Uterine leiomyoma: 0
  Subjects with treatment-emergent serious AE: Ventricular dysfunction: 0
Through Week 56
  Acrochordon: % of subjects: (2.3%)
  Acrochordon: number of subjects: 1
  Actinic keratosis: number of subjects: 0
  Alopecia: number of subjects: 0
  Asthenia: number of subjects: 0
  Asthma: % of subjects: (2.3%)
  Asthma: number of subjects: 1
  Atrioventricular block first degree: % of subjects: (2.3%)
  Atrioventricular block first degree: number of subjects: 1
  Basal cell carcinoma: number of subjects: 0
  Blood and lymphatic system disorders: number of subjects: 0
  Bronchitis chronic: % of subjects: (2.3%)
  Bronchitis chronic: number of subjects: 1
  Bundle branch block right: number of subjects: 0
  Cardiac disorders: % of subjects: (2.3%)
  Cardiac disorders: number of subjects: 1
  Chills: % of subjects: (2.3%)
  Chills: number of subjects: 1
  Cholelithiasis: % of subjects: (2.3%)
  Cholelithiasis: number of subjects: 1
  Chronic obstructive pulmonary disease: % of subjects: (2.3%)
  Chronic obstructive pulmonary disease: number of subjects: 1
  Coronary artery disease: number of subjects: 0
  Cough: % of subjects: (7.0%)
  Cough: number of subjects: 3
  Decreased appetite: number of subjects: 0
  Depression: % of subjects: (2.3%)
  Depression: number of subjects: 1
  Dermal cyst: number of subjects: 0
  Dermatitis acneiform: number of subjects: 0
  Dermatitis contact: % of subjects: (2.3%)
  Dermatitis contact: number of subjects: 1
  Diabetes mellitus: number of subjects: 0
  Diffuse alopecia: number of subjects: 0
  Dysuria: number of subjects: 0
  Ear and labyrinth disorders: % of subjects: (2.3%)
  Ear and labyrinth disorders: number of subjects: 1
  Endocrine disorders: number of subjects: 0
  Eye disorders: number of subjects: 0
  Eyelid skin dryness: number of subjects: 0
  Fatigue: % of subjects: (2.3%)
  Fatigue: number of subjects: 1
  General disorders and administration site conditions: % of subjects: (7.0%)
  General disorders and administration site conditions: number of subjects: 3
  Goiter: number of subjects: 0
  Haemochromatosis: number of subjects: 0
  Hand dermatitis: number of subjects: 0
  Hematuria: number of subjects: 0
  Hepatobiliary disorders: % of subjects: (2.3%)
  Hepatobiliary disorders: number of subjects: 1
  Hypercholesterolemia: % of subjects: (2.3%)
  Hypercholesterolemia: number of subjects: 1
  Hyperglycemia: % of subjects: (2.3%)
  Hyperglycemia: number of subjects: 1
  Hyperlipidemia: number of subjects: 0
  Hypertension: % of subjects: (2.3%)
  Hypertension: number of subjects: 1
  Hypertransaminasemia: number of subjects: 0
  Hypertriglyceridemia: number of subjects: 0
  Hypoacusis: number of subjects: 0
  Immune system disorders: number of subjects: 0
  Influenza like illness: number of subjects: 0
  Insomnia: % of subjects: (2.3%)
  Insomnia: number of subjects: 1
  Intertrigo: number of subjects: 0
  Ketonuria: number of subjects: 0
  Leukocyturia: % of subjects: (2.3%)
  Leukocyturia: number of subjects: 1
  Leukopenia: number of subjects: 0
  Libido decreased: % of subjects: (2.3%)
  Libido decreased: number of subjects: 1
  Liver disorder: number of subjects: 0
  Lymphopenia: number of subjects: 0
  Menopause: number of subjects: 0
  Metabolism and nutrition disorders: % of subjects: (4.7%)
  Metabolism and nutrition disorders: number of subjects: 2
  Neoplasms benign, malignant and unspecified (incl cysts and polyps): % of subjects: (2.3%)
  Neoplasms benign, malignant and unspecified (incl cysts and polyps): number of subjects: 1
  Nephrolithiasis: % of subjects: (2.3%)
  Nephrolithiasis: number of subjects: 1
  Neutropenia: number of subjects: 0
  Night sweats: number of subjects: 0
  Non-cardiac chest pain: number of subjects: 0
  Ocular cyst: number of subjects: 0
  Oedema peripheral: % of subjects: (2.3%)
  Oedema peripheral: number of subjects: 1
  Oropharyngeal pain: % of subjects: (2.3%)
  Oropharyngeal pain: number of subjects: 1
  Procedural pain: number of subjects: 0
  Productive cough: number of subjects: 0
  Proteinuria: number of subjects: 0
  Pruritus: % of subjects: (2.3%)
  Pruritus: number of subjects: 1
  Psoriasis: number of subjects: 0
  Psychiatric disorders: % of subjects: (7.0%)
  Psychiatric disorders: number of subjects: 3
  Pyrexia: number of subjects: 0
  Rash pruritic: number of subjects: 0
  Renal and urinary disorders: % of subjects: (4.7%)
  Renal and urinary disorders: number of subjects: 2
  Renal mass: number of subjects: 0
  Respiratory, thoracic and mediastinal disorders: % of subjects: (9.3%)
